These results are taken from article PMC9501280, “Anti-Inflammatory Activity of Soluble Epoxide Hydrolase Inhibitors Based on Selenoureas Bearing an Adamantane Moiety” (International Journal of Molecular Sciences, 2022).

“Also recorded” adds a separate entry of the source. Like-named read-outs stand apart in the source and are kept apart here.

Series [1] in a line: Ferrous ions (Fe2+) chelating activity (FIC). Particulars: compound 5 mM; EDTA taken as 100%. An excerpt: One of the most important antioxidant properties of compounds is the ability to chelate transition metal ions, including iron, which participate in the Fenton reaction, forming an active HO^• and H2O2 and contributing to the development of radical processes, respectively, leading to oxidative damage to cells. In this regard, potential antioxidants can act not only as scavengers of active radicals but also have chelating properties. Therefore, the Ferrous Ions Chelating Activity (FIC) of compounds 4a–g and 5a were evaluated in this work by their ability to bind iron(II), which is expressed in a decreased amount of the colored ferrozine complex.
The chelation of ferrous ions by compounds was estimated by the method of Dinis et al. Briefly, 10 μL of 2 mM FeCl2 was added to 20 μL of the investigated compound (5 mM) and 150 μL of EtOH. The reaction was initiated by the addition of 0.04 mL of 5 mM ferrozine solution. The mixture was left to stand at 35 °C for 10 min. The absorbance of the solution was thereafter measured at 562 nm. The percentage inhibition of ferrozine–Fe^2+ complex formation was calculated as […], where A0 is the absorbance of the control, and As is the absorbance of the compound/standard. Na2EDTA was used as the positive control.

The nature of series [2]: Cupric reducing antioxidant capacity (CUPRAC). Particulars: Trolox equivalents (Trolox = 1); compound 0.5 mM, 30 min. An excerpt: To confirm the SET mechanism, the reducing activity of the compounds was studied using tests CUPRAC (Cupric-Reducing Antioxidant Capacity) and FRAP (Ferric ion-Reducing Antioxidant Power). Unlike the DPPH and ABTS tests, these methods are based only on the ability of substances to act as electron donors. It should be noted that the CUPRAC test has several advantages: the manifestation of activity at a pH close to the physiological value and a favorable redox potential; the method is applicable to both lipophilic and hydrophilic antioxidants. The antioxidant potential of the studied derivatives 4a–g and 5a is estimated in equivalents of the water-soluble analog of vitamin E—Trolox (TEAC—Trolox Equivalent Antioxidant Capacity), the activity of which is taken as the unit ([…] = 1, […] = 1).
Neocuproine (2,9-dimethyl-1,10-phenanthroline) and Trolox were used with no further purification. The method proposed by Apak et al. was used with slight modifications. For these measurements, 0.05 mL of CuCl2 solution (0.01 M), 0.05 mL of MeOH neocuproine solution (7.5 mM) and 0.05 mL of ammonium acetate buffer solution (1 M) were added to a test tube, followed by mixing with the 0.05 mL tested compounds (0.5 mM). The mixtures were kept at room temperature for 30 min. The absorbance was measured at 450 nm against a reagent blank. The results were presented in Trolox equivalents (Trolox equivalent antioxidant capacity, TEAC) obtained using absorbance data, and the linear calibration curve was plotted as the absorbance vs. Trolox concentration.

The nature of series [3]: Superoxide radical anion formation by xanthine oxidase (NBT assay). The format is biochemical. Particulars: sample solution 5 mM in DMSO. The protocol: The superoxide anion radical scavenging activity of derivatives 4a–g and 5a was evaluated by the ability to inhibit the reduction of nitro blue tetrazolium (NBT) to blue formazan by trapping O2^•− generated by xanthine oxidase in the oxidation of hypoxanthine to uric acid.
EDTA, xanthine, bovine serum albumin, nitro blue tetrazolium and xanthine oxidase (25 MU) were purchased from Sigma Aldrich (Burlington, MA, USA). The superoxide anions were generated enzymatically by the xanthine oxidase system. The reaction mixture consisted of 2.70 mL of 40 mM sodium carbonate buffer containing 0.1 mM EDTA (pH 10.0), 0.06 mL of 10 mM xanthine, 0.03 mL of 0.5% bovine serum albumin, 0.03 mL of 2.5 mM nitro blue tetrazolium and 0.06 mL of the sample solution in DMSO at the concentration of 5 mM. An amount of 0.12 mL of xanthine oxidase (0.04 units) was added to the mixture at 25 °C, and the absorbance at 560 nm (by formation of blue formazan) was measured by a microplate spectrophotometer for 60 s. A control experiment was carried out by replacing the sample solution with the same amount of DMSO.
Inhibition I (%) = [(1 − Ai/A0) × 100%], where Ai is the absorbance in the presence of the testing compound, and A0 is the absorbance of the blank solution. All experiments were performed three times.

In a further series the target is T1, human recombinant sEH (Homo sapiens, UniProt P34913).
T1 sequence (P34913 1-555): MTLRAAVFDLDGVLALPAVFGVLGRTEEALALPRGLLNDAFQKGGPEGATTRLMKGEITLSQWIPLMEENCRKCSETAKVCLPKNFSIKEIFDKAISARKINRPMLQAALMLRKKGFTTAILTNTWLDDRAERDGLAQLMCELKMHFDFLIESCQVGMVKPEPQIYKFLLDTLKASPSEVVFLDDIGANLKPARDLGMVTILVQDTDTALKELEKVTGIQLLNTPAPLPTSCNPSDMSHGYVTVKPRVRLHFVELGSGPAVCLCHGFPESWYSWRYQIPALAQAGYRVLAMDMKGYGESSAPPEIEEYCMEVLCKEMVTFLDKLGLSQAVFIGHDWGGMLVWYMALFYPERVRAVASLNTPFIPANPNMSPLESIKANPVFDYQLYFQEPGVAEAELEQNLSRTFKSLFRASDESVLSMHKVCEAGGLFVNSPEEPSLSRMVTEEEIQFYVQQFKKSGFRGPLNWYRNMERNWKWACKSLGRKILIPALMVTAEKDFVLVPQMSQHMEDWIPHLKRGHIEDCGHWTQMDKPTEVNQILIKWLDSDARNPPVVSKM
Briefly: Human sEH inhibition, kinetic fluorescent assay. The format is biochemical.

The mark [4] stands for this setting: kinetic fluorescent assay, means of three separate experiments, read-out: Human sEH IC50.

`[Se]=C(Nc1ccccc1)NC12CC3CC(CC(C3)C1)C2` [4a, 1-(Adamantan-1-yl)-3-phenylselenourea]: the melting point (in general, the temperature of the solid-liquid transition) lay within 202 to 203 °C. Further, in series [1], the “% Inhibition FIC” value stood at 13.6 ± 0.04%. Besides, the TEACCUPRAC in series [2] came out at 1.07 ± 0.11. In addition, the “% Inhibition NBT” value in series [3] turned out to be 29.17 ± 0.01%. The 50% inhibitory concentration (IC50) – broadly, the point on the concentration scale where inhibition reaches its midpoint – at human recombinant sEH (setting [4]) came out at 436 nM.
In turn, `[Se]=C(NCC12CC3CC(CC(C3)C1)C2)Nc1ccccc1` [4b, 1-[(Adamantan-1-yl)methyl]-3-phenylselenourea] showed a melting point of 197 to 198 °C. Further, the “% Inhibition FIC” value in series [1] was 14.15 ± 2.27%. Also, in series [2], the TEACCUPRAC is 3.04 ± 0.11. In series [3], the “% Inhibition NBT” value is listed as 35.20 ± 1.46%. Moreover, the “increase in the inhibitory activity” value at human recombinant sEH (4b versus 4a, one methylene group between adamantyl and selenourea) was determined as 3.3 fold. Further, the IC50 at human recombinant sEH (setting [4]) worked out at 131 nM.
For `CC(NC(=[Se])Nc1ccccc1)C12CC3CC(CC(C3)C1)C2` (centres unmarked) [4c, 1-[1-(Adamantan-1-yl)ethyl]-3-phenylselenourea], the “% Inhibition FIC” value in series [1] is 21.90 ± 1.88%. In addition, the TEACCUPRAC in series [2] was 3.39 ± 0.11. Further, the “% Inhibition NBT” value in series [3] is on record as 6.52 ± 0.50%. The IC50 at human recombinant sEH (human sEH, read-out: IC50 (sEH)) was determined as 1200 nM; on human recombinant sEH (setting [4]) it was 1210 nM.
`[Se]=C(NCCC12CC3CC(CC(C3)C1)C2)Nc1ccccc1` [4d, 1-[2-(Adamantan-1-yl)ethyl]-3-phenylselenourea] displayed a melting point of 141 to 142 °C. The “% Inhibition FIC” value in series [1] is listed as “not established; also recorded: non active”. Also, the TEACCUPRAC in series [2] was found to be 3.29 ± 0.12. The “% Inhibition NBT” value in series [3] was determined as 6.85 ± 1.18%. The IC50 on human recombinant sEH (setting [4]) came out at 49.1 nM.
The compound `[Se]=C(Nc1ccccc1)Nc1ccc(C23CC4CC(CC(C4)C2)C3)cc1` [4e, 1-[4-(Adamantan-1-yl)phenyl]-3-phenylselenourea] came in with a melting point of 163 to 164 °C. Moreover, the “% Inhibition FIC” value in series [1] is given as “not established; also recorded: non active”. Besides, the TEACCUPRAC in series [2] was found to be 0.99 ± 0.05. Also, the “% Inhibition NBT” value in series [3] came out at 4.75 ± 0.50%. The IC50 on human recombinant sEH (setting [4]) turned out to be 55.4 nM.
In the same order, the values of `CC12CC3CC(C)(C1)CC(NC(=[Se])Nc1ccccc1)(C3)C2` [4f, 1-(3,5-Dimethyladamantan-1-yl)-3-phenylselenourea] are 142 to 143 °C, 26.20 ± 3.20%, 0.22± 0.01, 10.93 ± 1.05% and 256 nM.
Taken in the same sequence, the figures for `[Se]=C(Nc1ccccc1)NC1C2CC3CC(C2)CC1C3` (centres unmarked) [4g, 1-(Adamantan-2-yl)-3-phenylselenourea] were 187 to 188 °C, 19.74 ± 1.57%, 2.48 ± 0.16, 14.26 ± 1.48% and 104 nM.
In the same order, the values of `[Se]=C(NCc1ccccc1)NC12CC3CC(CC(C3)C1)C2` [5a, 1-(Adamantan-1-yl)-3-benzylselenourea] are 157 to 158 °C, “not established; also recorded: non active”, 1.62 ± 0.4, 56.52 ± 0.05% and 211 nM.
